Species on record: Rattus norvegicus
Assay: Open TG-GATES - Regimen: Single
Format: toxicity, organism-based, Sprague-Dawley
Set-up: regimen Single, gender Male, age 6 weeks
Details: in vivo, po, route gavage; for gamma-GTP / ALP / ALT / AST / BUN / CRE / Ca / Cl / DBIL / GLC / IP / K / LDH / Na / PL / RALB / TBIL / TC / TG / TP: tissue Plasma; for APTT / Bas / Eos / Fbg / Ht / Lym / MCH / MCHC / MCV / Mono / Neu / PT / Plat / RBC / Ret / WBC: tissue Blood; for KIDNEY_L / KIDNEY_R / KIDNEY_TOTAL: tissue Kidney; for LIVER: tissue Liver

Cc1cccc(Nc2cc(Cl)nc(SCC(=O)O)n2)c1C [PIRINIXIC ACID]
gamma-GTP (0 mg/kg, 24 h, dose level Control): 1.2 IU/L | TERMINAL_BW (10 mg/kg, 3 h, dose level Low): 205.8 g | APTT (10 mg/kg, 3 h, dose level Low): 14 s | Bas (10 mg/kg, 3 h, dose level Low): 0% | Eos (10 mg/kg, 3 h, dose level Low): 0.6% | Fbg (10 mg/kg, 3 h, dose level Low): 312.8 mg/dL | Ht (10 mg/kg, 3 h, dose level Low): 39.2% | Lym (10 mg/kg, 3 h, dose level Low): 70.2% | MCH (10 mg/kg, 3 h, dose level Low): 21.2 pg | MCHC (10 mg/kg, 3 h, dose level Low): 34.1% | MCV (10 mg/kg, 3 h, dose level Low): 62.1 fL | Mono (10 mg/kg, 3 h, dose level Low): 2.6% | Neu (10 mg/kg, 3 h, dose level Low): 26% | PT (10 mg/kg, 3 h, dose level Low): 12.2 s | Plat (10 mg/kg, 3 h, dose level Low): 125.7 x10_4/uL | RBC (10 mg/kg, 3 h, dose level Low): 631.2 x10_4/ul | Ret (10 mg/kg, 3 h, dose level Low): 8.2% | WBC (10 mg/kg, 3 h, dose level Low): 82.9 x10_2/uL | KIDNEY_L (10 mg/kg, 3 h, dose level Low): 0.8 g | KIDNEY_R (10 mg/kg, 3 h, dose level Low): 0.9 g | KIDNEY_TOTAL (10 mg/kg, 3 h, dose level Low): 1.7 g | LIVER (10 mg/kg, 3 h, dose level Low): 8.8 g | ALP (10 mg/kg, 3 h, dose level Low): 1833.4 IU/L | ALT (10 mg/kg, 3 h, dose level Low): 49 IU/L | AST (10 mg/kg, 3 h, dose level Low): 74 IU/L | BUN (10 mg/kg, 3 h, dose level Low): 11 mg/dL | CRE (10 mg/kg, 3 h, dose level Low): 0.2 mg/dL | Ca (10 mg/kg, 3 h, dose level Low): 11.2 mg/dL | Cl (10 mg/kg, 3 h, dose level Low): 103.8 meq/L | DBIL (10 mg/kg, 3 h, dose level Low): 0.058 mg/dL | GLC (10 mg/kg, 3 h, dose level Low): 191 mg/dL | IP (10 mg/kg, 3 h, dose level Low): 11.1 mg/dL | K (10 mg/kg, 3 h, dose level Low): 4.1 meq/L | LDH (10 mg/kg, 3 h, dose level Low): 66.4 IU/L | Na (10 mg/kg, 3 h, dose level Low): 139.8 meq/L | PL (10 mg/kg, 3 h, dose level Low): 173 mg/dL | RALB (10 mg/kg, 3 h, dose level Low): 2.6 g/dL | TBIL (10 mg/kg, 3 h, dose level Low): 0.044 mg/dL | TC (10 mg/kg, 3 h, dose level Low): 87.6 mg/dL | TG (10 mg/kg, 3 h, dose level Low): 161 mg/dL | TP (10 mg/kg, 3 h, dose level Low): 5.7 g/dL | gamma-GTP (10 mg/kg, 3 h, dose level Low): 1 IU/L | TERMINAL_BW (10 mg/kg, 6 h, dose level Low): 203.8 g | APTT (10 mg/kg, 6 h, dose level Low): 16 s | Bas (10 mg/kg, 6 h, dose level Low): 0% | Eos (10 mg/kg, 6 h, dose level Low): 0.6% | Fbg (10 mg/kg, 6 h, dose level Low): 266.8 mg/dL | Ht (10 mg/kg, 6 h, dose level Low): 39.9% | Lym (10 mg/kg, 6 h, dose level Low): 76.2% | MCH (10 mg/kg, 6 h, dose level Low): 22 pg | MCHC (10 mg/kg, 6 h, dose level Low): 34.3% | MCV (10 mg/kg, 6 h, dose level Low): 64.2 fL | Mono (10 mg/kg, 6 h, dose level Low): 2% | Neu (10 mg/kg, 6 h, dose level Low): 20.6% | PT (10 mg/kg, 6 h, dose level Low): 12.4 s | Plat (10 mg/kg, 6 h, dose level Low): 111.3 x10_4/uL | RBC (10 mg/kg, 6 h, dose level Low): 622.6 x10_4/ul | Ret (10 mg/kg, 6 h, dose level Low): 7.5% | WBC (10 mg/kg, 6 h, dose level Low): 80 x10_2/uL | KIDNEY_L (10 mg/kg, 6 h, dose level Low): 0.9 g | KIDNEY_R (10 mg/kg, 6 h, dose level Low): 0.8 g | KIDNEY_TOTAL (10 mg/kg, 6 h, dose level Low): 1.7 g | LIVER (10 mg/kg, 6 h, dose level Low): 7.9 g | ALP (10 mg/kg, 6 h, dose level Low): 1630.4 IU/L | ALT (10 mg/kg, 6 h, dose level Low): 43.6 IU/L | AST (10 mg/kg, 6 h, dose level Low): 79.2 IU/L | BUN (10 mg/kg, 6 h, dose level Low): 10 mg/dL | CRE (10 mg/kg, 6 h, dose level Low): 0.2 mg/dL | Ca (10 mg/kg, 6 h, dose level Low): 10.8 mg/dL | Cl (10 mg/kg, 6 h, dose level Low): 106.2 meq/L | DBIL (10 mg/kg, 6 h, dose level Low): 0.028 mg/dL | GLC (10 mg/kg, 6 h, dose level Low): 190.2 mg/dL | IP (10 mg/kg, 6 h, dose level Low): 10.7 mg/dL | K (10 mg/kg, 6 h, dose level Low): 4.1 meq/L | LDH (10 mg/kg, 6 h, dose level Low): 55.8 IU/L | Na (10 mg/kg, 6 h, dose level Low): 141.8 meq/L | RALB (10 mg/kg, 6 h, dose level Low): 2.6 g/dL | TBIL (10 mg/kg, 6 h, dose level Low): 0.038 mg/dL | TC (10 mg/kg, 6 h, dose level Low): 70.8 mg/dL | TG (10 mg/kg, 6 h, dose level Low): 76.8 mg/dL | TP (10 mg/kg, 6 h, dose level Low): 5.5 g/dL | gamma-GTP (10 mg/kg, 6 h, dose level Low): 1.2 IU/L | TERMINAL_BW (10 mg/kg, 9 h, dose level Low): 203.6 g | APTT (10 mg/kg, 9 h, dose level Low): 16.8 s | Bas (10 mg/kg, 9 h, dose level Low): 0% | Eos (10 mg/kg, 9 h, dose level Low): 0.6% | Fbg (10 mg/kg, 9 h, dose level Low): 248.4 mg/dL | Ht (10 mg/kg, 9 h, dose level Low): 38.9% | Lym (10 mg/kg, 9 h, dose level Low): 73.6% | MCH (10 mg/kg, 9 h, dose level Low): 21.7 pg | MCHC (10 mg/kg, 9 h, dose level Low): 34.5% | MCV (10 mg/kg, 9 h, dose level Low): 63 fL | Mono (10 mg/kg, 9 h, dose level Low): 2.2% | Neu (10 mg/kg, 9 h, dose level Low): 23% | PT (10 mg/kg, 9 h, dose level Low): 12.5 s | Plat (10 mg/kg, 9 h, dose level Low): 105.9 x10_4/uL | RBC (10 mg/kg, 9 h, dose level Low): 618 x10_4/ul | Ret (10 mg/kg, 9 h, dose level Low): 7.7% | WBC (10 mg/kg, 9 h, dose level Low): 67.5 x10_2/uL | KIDNEY_L (10 mg/kg, 9 h, dose level Low): 0.9 g | KIDNEY_R (10 mg/kg, 9 h, dose level Low): 0.9 g | KIDNEY_TOTAL (10 mg/kg, 9 h, dose level Low): 1.7 g | LIVER (10 mg/kg, 9 h, dose level Low): 7.8 g | ALP (10 mg/kg, 9 h, dose level Low): 1462.6 IU/L | ALT (10 mg/kg, 9 h, dose level Low): 35.4 IU/L | AST (10 mg/kg, 9 h, dose level Low): 69.2 IU/L | BUN (10 mg/kg, 9 h, dose level Low): 9.4 mg/dL | CRE (10 mg/kg, 9 h, dose level Low): 0.2 mg/dL | Ca (10 mg/kg, 9 h, dose level Low): 10.6 mg/dL | Cl (10 mg/kg, 9 h, dose level Low): 105 meq/L | DBIL (10 mg/kg, 9 h, dose level Low): 0.024 mg/dL | GLC (10 mg/kg, 9 h, dose level Low): 191.2 mg/dL | IP (10 mg/kg, 9 h, dose level Low): 10.6 mg/dL | K (10 mg/kg, 9 h, dose level Low): 3.7 meq/L | LDH (10 mg/kg, 9 h, dose level Low): 53.2 IU/L | Na (10 mg/kg, 9 h, dose level Low): 141.2 meq/L | PL (10 mg/kg, 9 h, dose level Low): 121.8 mg/dL | RALB (10 mg/kg, 9 h, dose level Low): 2.6 g/dL | TBIL (10 mg/kg, 9 h, dose level Low): 0.034 mg/dL | TC (10 mg/kg, 9 h, dose level Low): 63.8 mg/dL | TG (10 mg/kg, 9 h, dose level Low): 76.6 mg/dL | TP (10 mg/kg, 9 h, dose level Low): 5.3 g/dL | gamma-GTP (10 mg/kg, 9 h, dose level Low): 1.4 IU/L | TERMINAL_BW (10 mg/kg, 24 h, dose level Low): 212.4 g | APTT (10 mg/kg, 24 h, dose level Low): 15.7 s | Bas (10 mg/kg, 24 h, dose level Low): 0.2% | Eos (10 mg/kg, 24 h, dose level Low): 0.8% | Fbg (10 mg/kg, 24 h, dose level Low): 217.8 mg/dL | Ht (10 mg/kg, 24 h, dose level Low): 38.2% | Lym (10 mg/kg, 24 h, dose level Low): 77% | MCH (10 mg/kg, 24 h, dose level Low): 21.4 pg | MCHC (10 mg/kg, 24 h, dose level Low): 34.2% | MCV (10 mg/kg, 24 h, dose level Low): 62.6 fL | Mono (10 mg/kg, 24 h, dose level Low): 2.2% | Neu (10 mg/kg, 24 h, dose level Low): 19.6% | PT (10 mg/kg, 24 h, dose level Low): 12.8 s | Plat (10 mg/kg, 24 h, dose level Low): 111.5 x10_4/uL | RBC (10 mg/kg, 24 h, dose level Low): 611 x10_4/ul | Ret (10 mg/kg, 24 h, dose level Low): 7.3% | WBC (10 mg/kg, 24 h, dose level Low): 90.6 x10_2/uL | KIDNEY_L (10 mg/kg, 24 h, dose level Low): 0.9 g | KIDNEY_R (10 mg/kg, 24 h, dose level Low): 0.9 g | KIDNEY_TOTAL (10 mg/kg, 24 h, dose level Low): 1.9 g | LIVER (10 mg/kg, 24 h, dose level Low): 10.8 g | ALP (10 mg/kg, 24 h, dose level Low): 1927 IU/L | ALT (10 mg/kg, 24 h, dose level Low): 47 IU/L | AST (10 mg/kg, 24 h, dose level Low): 71.4 IU/L | BUN (10 mg/kg, 24 h, dose level Low): 13.6 mg/dL | CRE (10 mg/kg, 24 h, dose level Low): 0.2 mg/dL | Ca (10 mg/kg, 24 h, dose level Low): 11 mg/dL | Cl (10 mg/kg, 24 h, dose level Low): 104.2 meq/L | DBIL (10 mg/kg, 24 h, dose level Low): 0.022 mg/dL | GLC (10 mg/kg, 24 h, dose level Low): 191.4 mg/dL | IP (10 mg/kg, 24 h, dose level Low): 8.7 mg/dL | K (10 mg/kg, 24 h, dose level Low): 4 meq/L | LDH (10 mg/kg, 24 h, dose level Low): 57 IU/L | Na (10 mg/kg, 24 h, dose level Low): 143.2 meq/L | PL (10 mg/kg, 24 h, dose level Low): 108.8 mg/dL | RALB (10 mg/kg, 24 h, dose level Low): 2.5 g/dL | TBIL (10 mg/kg, 24 h, dose level Low): 0.034 mg/dL | TC (10 mg/kg, 24 h, dose level Low): 54.8 mg/dL | TG (10 mg/kg, 24 h, dose level Low): 49.4 mg/dL | TP (10 mg/kg, 24 h, dose level Low): 5.1 g/dL | gamma-GTP (10 mg/kg, 24 h, dose level Low): 1 IU/L

Source: ChEMBL document CHEMBL3885861, “Open TG-GATES”
